The values that follow come from US20080045514A1 (Cytovia, Inc., priority 2006, published 2008).

Holding throughout (assay type): cell-based
Test [1] relates to multi-drug resistant (MDR) murine leukemia cell line P388/ADR. The test is described as follows: Inhibition of cell proliferation (GI50), P388/ADR. To be noted: Mus musculus; P388/ADR multi-drug resistant cells. The procedure: (§1) Human breast cancer cell lines T-47D, human hepatocellular carcinoma cell line SNU398, human colon carcinoma cell line HCT116, human lung cancer cell line H1299, human leukemia cell line K562, human lymphoma cell line Raji, human B cell lymphoblastoid cell line Ramos, and human Burkitt's lymphoma cell line Namalwa were grown and harvested as in Example 100. An aliquot of […] of cells (4.4×10^4 cells/mL) was added to a well of a 96-well microtiter plate containing 5 μL of a 10% DMSO in RPMI-1640 media solution containing 10 nM to 100 μM of 3-(2-chlorophenyl)-6-(3,4-methylenedioxyphenyl)-7H-[1,2,4]triazolo[3,4-b][1,3,4]thiadiazine (1 nM to 10 μM final). An aliquot of 45 μL of cells was added to a well of a 96-well microtiter plate containing 5 μL of a 10% DMSO in RPMI-1640 media solution without compound as the control sample for maximal cell proliferation (LMax). The samples were mixed by agitation and then incubated at 37° C. for 48 h in a 5% CO2-95% humidity incubator. After incubation, the samples were removed from the incubator and 25 μL of CellTiter-Glo™ reagent (Promega) was added. The samples were mixed by agitation and incubated at room temperature for 10-15 min. Plates were then read using a luminescent plate reader (Model SPECTRAfluor Plus, Tecan) to give Ltest values.
(§2) The samples were mixed by agitation and then incubated at 37° C. for 0.5 h in a 5% CO2-95% humidity incubator. After incubation, the samples were removed from the incubator and 25 μL of CellTiter-Glo™ reagent (Promega) was added. The samples were mixed by agitation and incubated at […] 10-15 min at room temperature in a 5% CO2-95% humidity incubator. Fluorescence was read as above, (LStart) defining luminescence for initial cell number used as baseline in GI50 determinations.
(§3) Calculation: GI50 (dose for 50% inhibition of cell proliferation) is the concentration where [(Ltest−LStart)/(LMax−LStart)]=0.5.
(§4) Several compounds were tested in human sarcoma cell line MES-SA and multi-drug resistant (MDR) human sarcoma cell line MES-SA/ADR, murine leukemia cell line P388 and multi-drug resistant (MDR) murine leukemia cell line P388/ADR, and the data are summarized in Table III.

The test system of test [2] is human Burkitt's lymphoma cell line Namalwa. The experiment in a line: Caspase cascade activation (EC50), Namalwa. As to conditions: Homo sapiens, Burkitts lymphoma cell; Namalwa cells; caspase cascade activation; read-out: caspase potency (EC50) Namalwa. The essentials: (§5)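 Cells in ATCC medium plus 10% FCS, seeded at 0.65×10^6 cells/mL, incubated with compound at 0.016 to 10 μM final, 48 h, 37 °C. Lysis-substrate buffer (14 μM DEVD-R110, 20 mM DTT, pH 7.2, lysolecithin) added; fluorescence read after 3 h at room temperature.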

Test [3] relates to multi-drug resistant (MDR) human sarcoma cell line MES-SA/ADR. The experiment in a line: Inhibition of cell proliferation (GI50), MES-SA/ADR. As to conditions: MES-SA/ADR multi-drug resistant cells. The procedure:
as §1, §2, §3, §4

The test system of test [4] is human B cell lymphoblastoid cell line Ramos. The test is described as follows: Caspase cascade activation (EC50), Ramos. To be noted: Homo sapiens, RAMOS cells, read-out: caspase potency (EC50) RAMOS. Summed up:
as §5

The subject of test [5] is human lymphoma cell line Raji. The experiment in a line: Caspase cascade activation (EC50), Raji. As to conditions: Homo sapiens, RAJI cells, read-out: caspase potency (EC50) RAJI. The essentials:
as §5

In test [6] the test system is human colon carcinoma cell line HCT116. The test is described as follows: Caspase cascade activation (EC50), HCT116. As to conditions: Homo sapiens, HCT-116; HCT116 cells; caspase cascade activation; read-out: caspase potency (EC50) HCT116. The essentials:
as §5

Test [7] has as its system human B cell lymphoblastoid cell line Ramos. The test is described as follows: Inhibition of cell proliferation (GI50), Ramos. As to conditions: Homo sapiens; Ramos cells, 48 h, CellTiter-Glo. Summed up: (§6)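 Cells (4.4×10^4 cells/mL) exposed to compound at 1 nM to 10 μM final for 48 h at 37 °C, 5% CO2; growth read by CellTiter-Glo luminescence. Baseline luminescence taken after 0.5 h incubation. GI50 is the concentration where (Ltest−LStart)/(LMax−LStart)=0.5, LMax from untreated cells.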
(In ATP-based viability assays light output follows the ATP content of the culture.)

Test [8] has as its system human sarcoma cell line MES-SA. The test is described as follows: Inhibition of cell proliferation (GI50), MES-SA. To be noted: MES-SA cells. As for the experimental part: as §1, §2, §3, §4
Test [9] concerns murine leukemia cell line P388. The experiment in a line: Inhibition of cell proliferation (GI50), P388. To be noted: Mus musculus; P388 cells. The procedure:
as §1, §2, §3, §4

In test [10] the test system is human Burkitt's lymphoma cell line Namalwa. The experiment in a line: Inhibition of cell proliferation (GI50), Namalwa. To be noted: Homo sapiens, Burkitts lymphoma cell; Namalwa cells, 48 h, CellTiter-Glo. The essentials:
as §6

Test [11] has as its system human leukemia cell line K562. The experiment in a line: Inhibition of cell proliferation (GI50), K562. As to conditions: Homo sapiens; K562 cells, 48 h, CellTiter-Glo. Summed up:
as §6

The test system of test [12] is human lymphoma cell line Raji. The experiment in a line: Inhibition of cell proliferation (GI50), Raji. To be noted: Homo sapiens; Raji cells, 48 h, CellTiter-Glo. The essentials: as §6
Test [13] deals with human colon carcinoma cell line HCT116. The experiment in a line: Inhibition of cell proliferation (GI50), HCT116. As to conditions: Homo sapiens; HCT 116 cells, 48 h, CellTiter-Glo. Summed up: as §6
Test [14] concerns human hepatocellular carcinoma cell line SNU398. The experiment in a line: Caspase cascade activation (EC50), SNU398. To be noted: Homo sapiens, SNU-398; SNU398 cells; caspase cascade activation; read-out: caspase potency (EC50) SNU398. Summed up:
as §5

The subject of test [15] is human breast cancer cell line T-47D. The experiment in a line: Caspase cascade activation (EC50), T-47D. To be noted: Homo sapiens; T47D cells; caspase cascade activation; read-out: caspase potency (EC50) T47D. Summed up: as §5
Test [16] shares this test system. The experiment in a line: Inhibition of cell proliferation (GI50), T47D. To be noted: Homo sapiens; T47D cells, 48 h, CellTiter-Glo. Summed up:
as §6

In test [17] the test system is human cancer cell line H1299. The test is described as follows: Caspase cascade activation (EC50), H1299. As to conditions: NCI-H1299, H1299 cells, read-out: caspase potency (EC50) H1299. Summed up: as §5
Test [18] concerns human hepatocellular carcinoma cell line SNU398. The experiment in a line: Inhibition of cell proliferation (GI50), SNU398. As to conditions: Homo sapiens; SNU 398 cells, 48 h, CellTiter-Glo. Summed up:
as §6

For test [19], the system named is human lung cancer cell line H1299. The experiment in a line: Inhibition of cell proliferation (GI50), H1299. As to conditions: NCI-H1299, H1299 cells, 48 h, CellTiter-Glo. The procedure:
as §1, §2, §3

In the case of `COc1cc(-c2nnc3n2N=C(c2ccc4c(c2)OCO4)CS3)cc(Cl)c1OC` [Example 4, 3-(3-Chloro-4,5-dimethoxyphenyl)-6-(3,4-methylenedioxyphenyl)-7H-[1,2,4]triazolo[3,4-b][1,3,4]thiadiazine], the GI50 (in general, the concentration that inhibits growth by half) in test [1] was 16 nM; in test [3], 28 nM; in test [7] it was 12 nM; in test [8], 30 nM; in test [9] it was 12 nM; in [10], 31 nM. Moreover, the GI50 in test [11] is 24 nM; in [12] it was 26 nM; in test [13], 150 nM. Also, the EC50 (commonly the midpoint of the concentration-response curve) turned out to be 36 nM in [2]; 31 nM in test [4]; 32 nM in test [5]; 61 nM in test [6]; 47 nM in test [14]; 168 nM in test [15].

Consider `COc1ccc(C2=Nn3c(nnc3-c3cccc(OC)c3)SC2)cc1` [Example X, 3-(3-methoxyphenyl)-6-(4-methoxyphenyl)-7H-[1,2,4]triazolo[3,4-b][1,3,4]thiadiazine], for which the GI50 came out at 77 nM in test [1]; 400 nM in [16]; 196 nM in test [3]; 14 nM in test [7]; 418 nM in [8]; 57 nM in test [9]. In addition, the concentration for 50% growth inhibition (GI50) in [10] came out at 119 nM; in test [18], 55 nM; in test [11], 32 nM; in test [12] it was 62 nM; in test [13], 157 nM. The half-maximal effective concentration (EC50) is 66 nM in test [2]; 67 nM in test [4]; 680 nM in [17]; 83 nM in test [5]; 119 nM in test [6]; 67 nM in test [14]. Further, the concentration for a half-maximal effect (EC50) in test [15] was determined as 523 nM.

For the compound `COc1cc(OC)cc(-c2nnc3n2N=C(c2ccc4c(c2)OCO4)CS3)c1` [Example 2, 3-(3,5-Dimethoxyphenyl)-6-(3,4-methylenedioxyphenyl)-7H-[1,2,4]triazolo[3,4-b][1,3,4]thiadiazine], the GI50 is 29 nM in test [1]; 154 nM in test [3]; 11 nM in test [7]; 59 nM in test [8]; 20 nM in [9]; 20 nM in test [10]. The concentration for 50% growth inhibition (GI50) in test [11] worked out at 27 nM; in test [12] it was 53 nM; in [13] it was 190 nM. Further, the 50% effective concentration (EC50) was found to be 117 nM in test [2]; 89 nM in test [4]; 112 nM in test [5]; 139 nM in test [6]; 141 nM in test [14]; 508 nM in test [15].

For `COc1cc(-c2nnc3n2N=C(c2ccc4c(c2)OCO4)CS3)cc(OC)c1OC` [Example M1, 3-(3,4,5-Trimethoxyphenyl)-6-(3,4-methylenedioxyphenyl)-7H-[1,2,4]triazolo[3,4-b][1,3,4]thiadiazine], the concentration for 50% growth inhibition (GI50) in test [1] stood at 10 nM; in test [16] it was 22 nM; in test [3] it was 25 nM; in test [7], 16 nM; in test [8] it was 17 nM; in [19], 166 nM. Besides, the concentration for 50% growth inhibition (GI50) in test [9] came out at 7 nM; in [10] it was 13 nM; in test [18], 12 nM; in test [11] it was 18 nM; in [12], 41 nM; in [13] it was 25 nM. The EC50 worked out at 31 nM in [2]; 13 nM in test [4]; 68 nM in test [17]; 19 nM in test [5]; 40 nM in [6]; 28 nM in test [14]. For the same compound, in test [15], the EC50 was 61 nM.
